Measurements as given in the NIST ThermoML archive (doi:10.1021/je400683g).

Assays:
[1] = xn = mol fraction of the nth substance listed; conditions: 298.15 K, Maximal bubble pressure
[2] = for surface tension liquid-gas: Maximal bubble pressure; for vapor or sublimation pressure: Closed cell (Static) method
[3] = refractive index (Na D-line) (dimensionless); conditions: 298.15 K; 101.33 kPa; Liquid; Standard Abbe refractometry

CCO [ethanol] + Cc1ccc(C)o1
Conditions | surface tension liquid-gas [mN/m]
[1], x1 = 1 | 22.1

Cc1ccc(C)o1 [2,5-dimethylfuran]
Conditions | surface tension liquid-gas [mN/m]
[2], 298.15 K | 25.1

Conditions | mass density [kg/m3]
[2], 298.15 K, 101.33 kPa, Liquid, Vibrating tube method | 896.54

[2], Liquid
Conditions | vapor or sublimation pressure [kPa]
345.2 K | 50
357.18 K | 75
364.36 K | 94
366.83 K | 101.33

Conditions | refractive index
[3] | 1.44012

CCO [ethanol]
Conditions | surface tension liquid-gas [mN/m]
[2], 298.15 K | 22.1

[2], Liquid
Conditions | vapor or sublimation pressure [kPa]
323.51 K | 30.01
326.79 K | 35.01
329.68 K | 40.01
332.27 K | 45.01
334.57 K | 50
334.63 K | 50.01
336.8 K | 55.01
338.81 K | 60.01
340.68 K | 65.01
342.43 K | 70.01
344.02 K | 75
344.09 K | 75.01
345.64 K | 80.01
347.13 K | 85.01
348.54 K | 90.01
349.56 K | 94
349.89 K | 95.01
351.51 K | 101.33
351.68 K | 102.01

Conditions | refractive index
[3] | 1.36068

Cc1ccc(C)o1 [2,5-dimethylfuran] + CCO
[1]
Conditions | surface tension liquid-gas [mN/m]
x2 = 0 | 25.1
x2 = 0.049 | 24.96
x2 = 0.09 | 24.89
x2 = 0.176 | 24.68
x2 = 0.29 | 24.38
x2 = 0.386 | 24.22
x2 = 0.492 | 23.93
x2 = 0.594 | 23.73
x2 = 0.701 | 23.4
x2 = 0.804 | 23.02
x2 = 0.915 | 22.73
x2 = 0.963 | 22.5
